Source: patent US20230116196A1, “METHOD OF TREATING CNS DISORDERS WITH NEU[…] GABAERGIC COMPOUNDS” (priority 2017, published 2023)

Experiments:
[1] = system: dentate gyrus granule cells (DGGCs); test: sIPSCs in DGGCs after 15 min NAS exposure and >30 min wash; assay type: cell-based, mouse
Description: Bar graphs show average sIPSC decay and amplitude.
For tonic current measurements, an all-points histogram was plotted for a 10 s period before and during 100 μM picrotoxin application, once the response reached a plateau level. Recordings with unstable baselines were discarded. Fitting the histogram with a Gaussian distribution gave the mean baseline current amplitude and the difference between the amplitudes before and during picrotoxin was considered to be the tonic current. The negative section of the all-points histogram which corresponds to the inward IPSCs was not fitted with a Gaussian distribution (Kretschmannova et al., 2013; Nusser and Mody, 2002). Series resistance and whole-cell capacitance were continually monitored and compensated throughout the course of the experiment. Recordings were eliminated from data analysis if series resistance increased by >20%. Spontaneous inhibitory post-synaptic currents (sIPSCs) were analyzed using the mini-analysis software (version 5.6.4; Synaptosoft, Decatur, Ga.). […] Only recordings with a minimum of 200 events fitting these criteria were analyzed. sIPSCs amplitude, and frequency from each experimental condition was pooled and expressed as mean±SEM. To measure sIPSC decay, 100 consecutive events were averaged and the decay was fitted to a double exponential and the weighted decay constant (tw) was determined. […]

[2] = system: GABAA receptor α4 subunit S443; test: Immunoblot of α4 S443 phosphorylation in hippocampal slices; assay type: cell-based, mouse; conditions: 100 SGE-516 for 5 min
Description: Treatment of hippocampal slices with SGE-516 increased the phosphorylation of S408/9 measured using pS408/9 antibodies. To produce antibodies specific for phosphorylated S443, rabbits were injected with a synthetic peptide corresponding to residues […] of the murine α4 subunit in which the serine residue corresponding to S443 was chemically phosphorylated; […]. Hippocampal slices were treated with vehicle (Con), or SGE-516 for 20 min. Slices were immunoblotted with pS408/9, β3, or actin antibodies. The ratio of pS408/9/β3 immunoreactivity was then normalized to control slices (100%=the line).
Affinity purified pS443 was used to immunoblot varying concentrations of the immunizing phosphor-peptide (PP). pS443 was used to immunoblot extracts of hippocampal slices treated without preadsorption (0), preadsorbed with the dephosphorylated (DP), or phosphorylated antigen (PP). […] Moreover, the detection of this band was blocked by the phospho—but not the dephospho-antigen (FIG. 7B).
Hippocampal slices were treated with vehicle (Con) or 100 SGE-516 for 5 min and then immunoblotted with pS443 and α4 antibodies as indicated. pS443 immunoreactivity in hippocampal slices was increased by exposure to SGE-516, while total α4 levels were unaffected (FIG. 7C).

[3] = system: GABAA receptor α4 and β3 subunits; test: Biotinylation: cell surface levels of GABAA receptor subunits in hippocampal slices; assay type: cell-based, mouse; conditions: for GABAA-β3-containing receptors at the plasma membrane / cell surface stability of the β3 subunit: acute hippocampal slices
Description: Hippocampi were dissected out of acute slices from 8 to 12 week old C57/Bl6 mice and lysed with […] including: 20 mM Tris-HCl, 150 mM NaCl, 5 mM EDTA, 10 mM NaF, 2 mM Na3VO4, 10 mM pyrophosphate, 0.1% SDS and 1% Triton after drug treatment. The β3 subunit was isolated using immunoprecipitation with β3 antibodies, after correction for protein content and the specific activity of labeling. Results were attained by SDS/PAGE followed by autoradiography (Abramian et al., 2010). For biotinylation experiments hippocampi were dissected out of acute slices from 8 to 12 week old C57/Bl6 mice and incubated in artificial cerebrospinal fluid (ACSF) described above at 30° C. for 1 h for recovery before experimentation. Slices were then placed on ice and incubated for 30 min with 1 mg/mL NHS-SS-biotin (Pierce). Excess biotin was removed by a 50 mM glycine quenching buffer, followed by washing of slices three times in ice-cold ACSF. The tissue was snap frozen on dry ice for 5 min, thawed at 4° C. and lysed. The lysates were solubilized with 2% Triton at 4° C. on a rotating wheel for 1 h. The insoluble material was removed by centrifugation, and 350-500 μg of protein lysate were incubated with NeutrAvidin beads (Pierce) for 18-24 h at 4° C. Bound material was eluted with sample buffer and subjected to SDS/PAGE and then immunoblotted with the indicated antibodies. Blots were then quantified using the CCD-based ChemiDoc XRS ? system. Antibodies against the β3 subunit and the phospho-β3 antibody were generated and verified by the laboratory of S.J.M. (Vien et al., 2015).
Hippocampal slices were treated as outlined above. Treated slices were then subject to biotinylation and lysis, and surface fractions were isolated on immobilized avidin. Surface (S) and total (T) fractions were immunoblotted with α4 and β3 subunit antibodies.
The ratio of surface/total (S/T) immunoreactivity was then normalized to levels seen in control (100%).

[4] = system: GABAARs containing the α4 and β subunits, S408/9A mice; test: Biotinylation: cell surface levels of GABAARs in hippocampal slices from S408/9A mice; assay type: cell-based, mouse; conditions: 100 nM, 20 min
Description: Consistent with the examples above, hippocampal slices from WT and S408/9A mice were treated for 20 min with 100 nM SGE-516 or vehicle (Con) and subjected to biotinylation followed by immunoblotting with β and α4 subunit antibodies. The ratio of surface/total (S/T) immunoreactivity was then normalized to levels seen in control (100%).

DGGCs from mutant mice = test: sIPSC decay time in DGGCs from mutant mice; assay type: cell-based, mouse; conditions: 100 nM ALLO
Description: The ability of 100 nM ALLO to modulate the decay time of sIPSCs was compared in DGGCs from WT and S940A mice as detailed in FIG. 2.

GT1-7 cells [5] = test: Immunoblot of β3 S408/9 phosphorylation in GT1-7 cells; assay type: cell-based; conditions: 100 nM, 15 min
Description: GT1-7 cells that co-express mPRα and GABAARs were used to measure the level of phosphorylation at S408/9 position of β3 subunit. […] Expression of mPRα was confirmed using western blotting.
GT1-7 cells were treated with 100 nM AllO or P4 for 15 min and immunoblotted with antibodies specifically recognizing β3, actin, and […] β3 subunit (pS408/9). The ratio of pS408/9 β3 subunit immunoreactivity were then normalized to levels seen in vehicle treated to controls, n=6.

GT1-7 cells [6] = test: Patch-clamp of GABA-induced currents (IGABA) in GT1-7 cells; assay type: cell-based; conditions: 100 nM in electrolyte, GABA EC20, 20 min time course
Description: Patch-clamp recordings were made from GT1-7 cells. The magnitude of the GABA-induced currents (IGABA) at EC20 agonists concentration were then measured, in the presence of control electrolyte or that supplemented with 100 nM ALLO, or 100 nM ORG OD 02-0 over a time course of 20 min.

Row | Compound | SGE-516 enhancement of sIPSC amplitude in presence of GFX ([1]; 100 nM SGE-516 with GFX) | sIPSC amplitude following exposure and wash ([1]; 100 nM, 15 min, >30 min wash) | pS443 immunoreactivity in hippocampal slices [2] | total α4 levels [2] | GABAA-β3-containing receptors at the plasma membrane / cell surface stability of the β3 subunit ([3]; 100 nM) | plasma membrane levels of GABAARs containing the α4 and β subunits, S/T normalized to control (100%) ([3]; WT mice slices, 100 nM, 20 min) | plasma membrane accumulation of both the α4 and β3 subunits ([3]; hippocampal slices, surface/total) | increase of plasma membrane levels of GABAARs in slices from S408/9A mice [4] | sIPSC decay time in the mutant mice (DGGCs from mutant mice) | S408/9 phosphorylation in GT1-7 cells (GT1-7 cells [5]) | GABA-evoked currents recorded from GT1-7 cells (GT1-7 cells [6])
1 | C[C@@]1(O)CC[C@@]2(C)[C@H](CC[C@@H]3[C@@H]2CC[C@]2(C)[C@@H](C(=O)Cn4nccn4)CC[C@@H]32)C1 [SGE-516] | significantly reduced | significantly enhanced | increased | unaffected | increases | 175-185% | increased | not seen |  |  | 
2 | CC(=O)[C@H]1CC[C@H]2[C@@H]3CC[C@H]4C[C@H](O)CC[C@]4(C)[C@H]3CC[C@]12C [ALLO, Allopregnanolone] |  |  |  |  | increases |  |  |  | did not increase | increase | sustained increases
